The results in this text go back to patent US20180296623A1, “PHARMACEUTICAL COMPOSITION FOR PROMOTING PERIODONTAL TISSUE GROWTH AND FOR PREVENTION AND TREATMENT OF PERIODONTITIS, CONTAINING MAGNOLIA FLOWER EXTRACT, FRACTION THEREOF OR COMPOUND ISOLATED THEREFROM AS ACTIVE INGREDIENT” (OKINAWA RESEARCH CENTER CO., LTD., priority 2015, published 2018).

Structures are written as SMILES.

The test system of this assay is dental root or periodontal tissue. In words: Transplantation of mouse molar embedded in agarose beads containing fargesin into host mouse kidney capsule; micro CT. The conditions noted are these: beads soaked in 80 μm fargesin in PBS, molar of 5-day-old mouse grafted into kidney capsule of 8-week-old host mouse, 3 weeks, vs PBS control. Format: in vivo, C57BL/6 mouse. As to the method: The following experiment was performed in order to investigate the promoting effect of the fargesin isolated from the Magnolia flower extract on the growth of dental root or periodontal tissue.
Particularly, the fargesin obtained in Example 1 was diluted in PBS (Dainippon Pharmaceuticals Inc., Japan) at the final concentration of 80 μm, and four agarose beads (Affi-Gel Blue Gel, #153-7301, Bio-Rad Laboratories Inc., Japan) were washed with PBS, followed by reaction for at least 60 minutes to allow the fargesin to be absorbed in those beads. For the control, 4 other beads were reacted only with PBS. A 5-day-old C57BL/6 mouse (Sankyo Labo Service Corporation, Japan) was sacrificed, from which molars were extracted from the lower jaws. Dental pulp of the extracted molar was embedded in the agarose beads containing fargesin. For the control, dental pulp of the extracted molar was embedded in the agarose beads containing PBS alone. The agarose beads were each grafted into capsules of the 8-week-old C57BL/6 host mouse (female, Sankyo Labo Service Corporation, Japan) kidneys. The host mice were raised in the conditions of 12 h/12 h light and dark cycle, room temperature, and free feeding. 3 weeks later, the mice were sacrificed, from which the kidneys were extracted. Then, the teeth were observed. The 3D image of the teeth was taken by micro CT (Rigaku R_mCT2).

In the case of `COc1ccc([C@@H]2OC[C@H]3[C@@H]2CO[C@@H]3c2ccc3c(c2)OCO3)cc1OC` [fargesin], the “formation of alveolar bone around the grafted tooth” value was “observed” and the “growth of dental root” value is “significant”.
